The assay concerns the target T1, glutathione peroxidase (GPx) (Bos taurus, UniProt P00435).
T1 construct: gene GPX1; selenoprotein; EDC-coupled to magnetic nanoparticles for the assay
T1 sequence (P00435 1-205): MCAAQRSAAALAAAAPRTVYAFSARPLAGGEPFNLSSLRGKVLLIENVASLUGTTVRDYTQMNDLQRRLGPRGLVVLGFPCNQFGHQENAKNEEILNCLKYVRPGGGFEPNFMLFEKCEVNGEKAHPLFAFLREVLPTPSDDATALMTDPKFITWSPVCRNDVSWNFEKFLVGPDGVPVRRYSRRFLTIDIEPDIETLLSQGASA
The experiment in a line: stopped-flow microfluidic fluorimetry of competing homovanillic acid dimerization, Lineweaver-Burk. It is filed as biochemical. The settings on record: GPx immobilized on magnetic nanoparticles; GSH, H2O2, HVA; Tris-HCl 50 mmol/L pH 9, 30 °C; stated non-competitive; listed as at 1 µmol/L inhibitor; printed unit is not a concentration. The text has this: stopped-flow microfluidic fluorimetry of competing homovanillic acid dimerization, Lineweaver-Burk on glutathione peroxidase (GPx)

The source of these data is PMC10079702, “Study of the inhibition effects on glutathione peroxidase immobilized on MNPs using a stopped-flow microfluidic system” (Analytical and Bioanalytical Chemistry, 2023).

`CC(C)(C)OO` [t-butyl hydroperoxide]: the “KI” value was found to be 117.09 µmol/L/s.
